Test results taken from US9567322B2, “Substituted tetrahydropyrans and method of use” (AbbVie S.á.r.l., priority 2014, dated 2017).

Molecular target: T1, F508delCFTR (Homo sapiens, UniProt P13569, DEL508-508)
T1 construct: expressed in transfected cells; host or cells: CFBE41o- (CFBE41o-F508delCFTR-HRP), doxycycline-inducible
Assay: Cell Surface Expression-Horse Radish Peroxidase (CSE-HRP) assay
Type: cell-based
Conditions: CFBE41o-F508delCFTR-HRP cells; for EC50: cell surface expression, luminescence readout, 18-24 hours at 33° C., highest concentration tested 20 μM, 8-point curve; for Maximum % activity: maximum at any tested concentration, normalized to on-plate positive control (3 μM) and DMSO
Text: Cell Surface Expression-Horse Radish Peroxidase (CSE-HRP) Assay:
A cellular assay for measuring the F508delCFTR cell surface expression after correction with test compounds was developed in human lung derived epithelial cell line (CFBE41o-) (Veit G et al, (2012) Mol Biol Cell. 23(21): 4188-4202). This was achieved by expressing the F508delCFTR mutation along with a horseradish peroxidase (HRP) in the fourth exofacial loop and then measuring the HRP activity using luminescence readout from these cells, CFBE41o-F508delCFTR-HRP, that were incubated overnight with the test corrector compounds. Briefly, for this primary assay, the CFBE41o-F508delCFTR-HRP cells were plated in 384-well plates (Greiner Bio-one; Cat 781080) at 4,000 cells/well along with 0.5 μg/mL doxycycline to induce the F508delCFTR-HRP expression and further incubated at 37° C., 5% CO2 for 72 hours. The test compounds were then added at the required concentrations and further incubated for 18-24 hours at 33° C. The highest concentration tested was 20 μM with an 8-point concentration response curve using a 3-fold dilution. Three replicate plates were run to determine one EC50. All plates contained negative controls (dimethyl sulfoxide, DMSO) and positive controls (3 μM of 3-[(2R,4R)-4-({[1-(2,2-difluoro-1,3-benzodioxol-5-yl)cyclopropyl]carbonyl}amino)-7-methoxy-3,4-dihydro-2H-chromen-2-yl]benzoic acid) as well as on-plate concentration response of the positive control. Post incubation, the plates were washed 5× times with Dulbecco's phosphate buffered saline (DPBS), followed by the addition of the HRP substrate, luminol (50 μL), and measuring the HRP activity using luminescence readout on EnVision® Multilabel Plate Reader (Perkin Elmer; product number 2104-0010). The raw counts from the experiment are analyzed using Accelrys® Assay Explorer v3.3.
Z′ greater than 0.5 was used as passing quality control criteria for the plates.
The Z′ is defined as: 1−[3*SDPositive Control+3*SDNegative Control/Absolute(MeanPositive Control−MeanNegative Control)],
wherein “SD” is standard deviation.
The % activity measured at each of the 8 test concentrations of the test compound was normalized to the on-plate positive control using the following formula: % activity=[(test compound response−DMSO response)/(positive control response−DMSO response)]*100
The maximum % activity achieved for the test compound at any tested concentration is presented in Table 1 along with the EC50 calculated using the following general sigmoidal curve with variable Hill slope equation (described as Model 42 in the Accelrys® Assay Explorer v3.3 software): y=(a−d)/(1+(x/c)^b)+d General sigmoidal curve with concentration, response, top, bottom, EC50 and Hill slope.
This model describes a sigmoidal curve with an adjustable baseline, a. The equation can be used to fit curves where response is either increasing or decreasing with respect to the independent variable, “x”.
“x” is a concentration of drug under test.
“a” is the maximum response, and “d” is the minimum response
“c” is the inflection point (EC50) for the curve. That is, “y” is halfway between the lower and upper asymptotes when x=c.
“b” is the slope-factor or Hill coefficient. The sign of b is positive when the response increases with increasing dose and is negative when the response decreases with increasing dose (inhibition).

T1 sequence (P13569 with tags, fused parts or gaps DEL508-508): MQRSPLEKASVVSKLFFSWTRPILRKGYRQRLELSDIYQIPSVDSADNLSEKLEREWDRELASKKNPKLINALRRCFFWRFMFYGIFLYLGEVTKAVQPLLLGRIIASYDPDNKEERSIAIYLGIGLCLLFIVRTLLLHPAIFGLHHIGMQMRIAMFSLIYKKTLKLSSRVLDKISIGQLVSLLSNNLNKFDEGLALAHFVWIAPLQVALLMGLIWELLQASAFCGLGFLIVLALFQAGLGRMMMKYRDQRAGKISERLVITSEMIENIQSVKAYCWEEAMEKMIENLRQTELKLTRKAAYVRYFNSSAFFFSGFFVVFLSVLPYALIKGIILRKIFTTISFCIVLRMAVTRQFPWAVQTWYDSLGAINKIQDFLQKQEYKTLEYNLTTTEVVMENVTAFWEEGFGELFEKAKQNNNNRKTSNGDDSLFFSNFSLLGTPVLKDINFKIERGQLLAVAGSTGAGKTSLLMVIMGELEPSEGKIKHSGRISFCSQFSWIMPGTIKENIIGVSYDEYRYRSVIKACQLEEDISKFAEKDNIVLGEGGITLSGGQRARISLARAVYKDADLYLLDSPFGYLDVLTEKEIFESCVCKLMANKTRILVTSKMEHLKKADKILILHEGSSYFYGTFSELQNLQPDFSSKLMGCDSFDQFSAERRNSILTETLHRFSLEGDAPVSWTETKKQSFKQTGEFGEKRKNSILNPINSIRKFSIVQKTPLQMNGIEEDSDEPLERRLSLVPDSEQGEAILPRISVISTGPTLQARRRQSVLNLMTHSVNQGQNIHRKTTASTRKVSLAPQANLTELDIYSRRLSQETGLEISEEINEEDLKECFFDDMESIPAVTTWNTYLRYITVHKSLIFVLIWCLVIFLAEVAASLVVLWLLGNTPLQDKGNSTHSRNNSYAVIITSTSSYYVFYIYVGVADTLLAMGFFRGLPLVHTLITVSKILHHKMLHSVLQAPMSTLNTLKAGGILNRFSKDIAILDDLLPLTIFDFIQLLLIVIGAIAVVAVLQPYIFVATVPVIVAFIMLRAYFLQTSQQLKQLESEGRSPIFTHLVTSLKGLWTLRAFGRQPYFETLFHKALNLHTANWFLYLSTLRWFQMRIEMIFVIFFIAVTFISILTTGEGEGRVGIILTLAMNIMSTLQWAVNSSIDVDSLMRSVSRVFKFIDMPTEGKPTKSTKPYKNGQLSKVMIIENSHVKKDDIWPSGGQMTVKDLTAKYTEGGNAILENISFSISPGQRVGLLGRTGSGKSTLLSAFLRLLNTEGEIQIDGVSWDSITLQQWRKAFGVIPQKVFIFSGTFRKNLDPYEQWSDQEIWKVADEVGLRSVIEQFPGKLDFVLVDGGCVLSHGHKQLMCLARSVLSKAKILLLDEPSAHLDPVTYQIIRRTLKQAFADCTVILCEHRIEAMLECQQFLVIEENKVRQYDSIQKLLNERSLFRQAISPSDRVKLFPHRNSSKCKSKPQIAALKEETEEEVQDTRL

Row | EC50 [nM] | Maximum % activity [%] | Maximum % activity (3 µM) [%] | Structure (SMILES)
1 | 6470 | 73 |  | COC(=O)c1ccc([C@H]2C[C@H](NC(=O)C3(c4ccc5c(c4)OC(F)(F)O5)CC3)C[C@@H](c3ccccc3)O2)cc1 (racemic) [Example 47, methyl rac-4-[(2R,4R,6S)-4-({[1-(2,2-difluoro-1,3-benzodioxol-5-yl)cyclopropyl]carbonyl}amino)-6-phenyltetrahydro-2H-pyran-2-yl]benzoate]
2 | 2180 | 63 |  | COC(=O)c1cccc([C@H]2C[C@H](NC(=O)C3(c4ccc5c(c4)OC(F)(F)O5)CC3)C[C@@H](c3ccccc3)O2)c1 (racemic) [Example 22, methyl rac-3-[(2R,4R,6S)-4-({[1-(2,2-difluoro-1,3-benzodioxol-5-yl)cyclopropyl]carbonyl}amino)-6-phenyltetrahydro-2H-pyran-2-yl]benzoate]
3 | 2400 |  | 53 | Cc1cc(C(=O)O)ccc1[C@H]1C[C@H](NC(=O)C2(c3ccc4c(c3)OC(F)(F)O4)CC2)C[C@@H](c2ccccc2)O1 (racemic) [Example 64, rac-4-[(2R,4R,6S)-4-({[1-(2,2-difluoro-1,3-benzodioxol-5-yl)cyclopropyl]carbonyl}amino)-6-phenyltetrahydro-2H-pyran-2-yl]-3-methylbenzoic acid]
4 | 3310 | 73 |  | COC(=O)c1ccc([C@@H]2C[C@H](NC(=O)C3(c4ccc5c(c4)OC(F)(F)O5)CC3)CCO2)cc1 [Example 28, methyl 4-[(2S,4R)-4-({[1-(2,2-difluoro-1,3-benzodioxol-5-yl)cyclopropyl]carbonyl}amino)tetrahydro-2H-pyran-2-yl]benzoate]
5 | 3110 | 23 |  | COC(=O)c1cccc([C@H]2C[C@H](NC(=O)C3(c4ccc5c(c4)OC(F)(F)O5)CC3)CCO2)c1 (racemic) [Example 4, methyl rac-3-[(2R,4R)-4-({[1-(2,2-difluoro-1,3-benzodioxol-5-yl)cyclopropyl]carbonyl}amino)tetrahydro-2H-pyran-2-yl]benzoate]
6 | 9570 | 26 |  | O=C(O)c1ccc([C@@H]2C[C@H](NC(=O)C3(c4ccc5c(c4)OC(F)(F)O5)CC3)CCO2)cc1 [Example 30, 4-[(2S,4R)-4-({[1-(2,2-difluoro-1,3-benzodioxol-5-yl)cyclopropyl]carbonyl}amino)tetrahydro-2H-pyran-2-yl]benzoic acid]
7 | 6700 | 75 |  | O=C(N[C@@H]1CCO[C@H](c2ccc3c(c2)OCO3)C1)C1(c2ccc3c(c2)OC(F)(F)O3)CC1 [Example 15, N-[(2S,4R)-2-(1,3-benzodioxol-5-yl)tetrahydro-2H-pyran-4-yl]-1-(2,2-difluoro-1,3-benzodioxol-5-yl)cyclopropanecarboxamide]
8 | 1700 | 62 |  | O=C(N[C@H]1CCO[C@@H](c2ccccc2)C1)C1(c2ccc3c(c2)OC(F)(F)O3)CC1 (racemic) [Example 1, rac-1-(2,2-difluoro-1,3-benzodioxol-5-yl)-N-[(2R,4S)-2-phenyltetrahydro-2H-pyran-4-yl]cyclopropanecarboxamide]
9 | 5150 | 32 |  | O=C(N[C@@H]1CCO[C@@H](c2cccc(CO)c2)C1)C1(c2ccc3c(c2)OC(F)(F)O3)CC1 (racemic) [Example 6, rac-1-(2,2-difluoro-1,3-benzodioxol-5-yl)-N-{(2R,4R)-2-[3-(hydroxymethyl)phenyl]tetrahydro-2H-pyran-4-yl}cyclopropanecarboxamide]

Further lines, the compound ahead of its results:

Row | Structure (SMILES) | EC50 [nM] | Maximum % activity [%] | Maximum % activity (3 µM) [%]
10 | COC(=O)c1ccc([C@H]2C[C@H](NC(=O)C3(c4ccc5c(c4)OC(F)(F)O5)CC3)CC(C)(C)O2)cc1 (racemic) [Example 32, methyl rac-4-[(2R,4S)-4-({[1-(2,2-difluoro-1,3-benzodioxol-5-yl)cyclopropyl]carbonyl}amino)-6,6-dimethyltetrahydro-2H-pyran-2-yl]benzoate] | 4120 | 69 | 
11 | CCOC(=O)c1cccc([C@H]2C[C@@H](NC(=O)C3(c4ccc5c(c4)OC(F)(F)O5)CC3)C[C@@H](c3cccc(OC)c3)O2)c1 (racemic) [Example 68, ethyl rac-3-[(2R,4R,6S)-4-({[1-(2,2-difluoro-1,3-benzodioxol-5-yl)cyclopropyl]carbonyl}amino)-6-(3-methoxyphenyl)tetrahydro-2H-pyran-2-yl]benzoate] | 1040 | 108 | 
12 | O=C(N[C@@H]1CCO[C@@H](c2ccc(Br)cc2)C1)C1(c2ccc3c(c2)OC(F)(F)O3)CC1 [Example 20, N-[(2R,4R)-2-(4-bromophenyl)tetrahydro-2H-pyran-4-yl]-1-(2,2-difluoro-1,3-benzodioxol-5-yl)cyclopropanecarboxamide] | 7300 | 45 | 
13 | O=C(O)c1cccc([C@H]2C[C@H](NC(=O)C3(c4ccc5c(c4)OC(F)(F)O5)CC3)C[C@@H](c3ccccc3)O2)c1 (racemic) [Example 25, rac-3-[(2R,4R,6S)-4-({[1-(2,2-difluoro-1,3-benzodioxol-5-yl)cyclopropyl]carbonyl}amino)-6-phenyltetrahydro-2H-pyran-2-yl]benzoic acid] | 2020 | 108 | 
14 | COC(=O)c1ccc([C@H]2C[C@@H](NC(=O)C3(c4ccc5c(c4)OC(F)(F)O5)CC3)CCO2)c(C)c1 (single isomer, unassigned) [Example 41] | 410 | 104 | 
15 | COC(=O)c1ccccc1[C@H]1C[C@@H](NC(=O)C2(c3ccc4c(c3)OC(F)(F)O4)CC2)CCO1 (racemic) [Example 11, methyl rac-2-[(2R,4S)-4-({[1-(2,2-difluoro-1,3-benzodioxol-5-yl)cyclopropyl]carbonyl}amino)tetrahydro-2H-pyran-2-yl]benzoate] | 900 | 116 | 
16 | O=C(O)c1ccccc1[C@H]1C[C@@H](NC(=O)C2(c3ccc4c(c3)OC(F)(F)O4)CC2)CCO1 (racemic) [Example 12, rac-2-[(2R,4S)-4-({[1-(2,2-difluoro-1,3-benzodioxol-5-yl)cyclopropyl]carbonyl}amino)tetrahydro-2H-pyran-2-yl]benzoic acid] | 7630 | 108 | 
17 | COC(=O)c1cccc([C@H]2C[C@@H](NC(=O)C3(c4ccc5c(c4)OC(F)(F)O5)CC3)CCO2)c1 [Example 17, methyl 3-[(2R,4S)-4-({[1-(2,2-difluoro-1,3-benzodioxol-5-yl)cyclopropyl]carbonyl}amino)tetrahydro-2H-pyran-2-yl]benzoate] | 1110 | 81 | 
18 | O=C(O)c1cccc([C@H]2C[C@@H](NC(=O)C3(c4ccc5c(c4)OC(F)(F)O5)CC3)CCO2)c1 (racemic) [Example 2, rac-3-[(2R,4S)-4-({[1-(2,2-difluoro-1,3-benzodioxol-5-yl)cyclopropyl]carbonyl}amino)tetrahydro-2H-pyran-2-yl]benzoic acid] | 850 | 71 | 
19 | COC(=O)c1ccc([C@H]2C[C@@H](NC(=O)C3(c4ccc5c(c4)OC(F)(F)O5)CC3)C[C@@H](c3ccc(OC)cc3)O2)cc1 (racemic) [Example 55, methyl rac-4-[(2R,4R,6S)-4-({[1-(2,2-difluoro-1,3-benzodioxol-5-yl)cyclopropyl]carbonyl}amino)-6-(4-methoxyphenyl)tetrahydro-2H-pyran-2-yl]benzoate] | 860 | 104 | 
20 | COC(=O)c1cccc([C@H]2C[C@@H](NC(=O)C3(c4ccc5c(c4)OC(F)(F)O5)CC3)C[C@@H](c3ccccc3)O2)c1 (racemic) [Example 23, methyl rac-3-[(2R,4S,6S)-4-({[1-(2,2-difluoro-1,3-benzodioxol-5-yl)cyclopropyl]carbonyl}amino)-6-phenyltetrahydro-2H-pyran-2-yl]benzoate] | 850 | 104 | 
